# From patent publication US20260284208A1, “SYSTEM” (Oxford University Innovation Limited, priority 2023, published 2026)
# Tests used:
# Assay type in all cases: cell-based
# [1] = target: endogenous IKZF3 in Jurkat cells (Homo sapiens, UniProt Q96SW2+Q9UKT9); test: Immunoblotting of endogenous IKZF3; conditions: for endogenous IKZF3 level relative to DMSO control (Western blot): 1 μM or 10 μM, untransduced Jurkat cells; for ability to degrade endogenous IKZF3 (Western blot): even at 10 uM
# Protocol: (§1) Jurkat cells were added to T25 flasks (Falcon) at 2×10^6 cells per flask and were incubated with compounds for 18 hours at 37° C. and 5% CO2. Cells were lysed in buffer containing 9 M urea (Sigma), 75 mM Tris-HCl (Sigma), 0.15 M β-mercaptoethanol (Merck) and 10× diluted protease inhibitor cocktail (Merck). Cells lysates were sonicated for 10 seconds 3 times, centrifuged at 13000 rpm for 10 minutes at 4° C. and the supernatants were transferred into fresh tubes. Protein concentrations were measured using a Pierce BCA Protein Assay Kit (Thermo). Proteins were boiled in Laemmli sample buffer (Bio-Rad) for 5 minutes at 100° C. and separated by SDS-PAGE (7.5% Mini-PROTEAN TGX gels, Bio-Rad) and compared to the PageRuler Prestained Protein Ladder (Thermo). Semi-dry blotting was done on a Trans-Blot Turbo Transfer System (Bio-Rad) with the Trans-Blot Turbo RTA Mini 0.2 μm PVDF Transfer Kit (Bio-Rad) using the default mixed molecular weight mode. Membranes were blocked in 5% non-fat dry milk (Bio Rad) in TBS-T. Primary IKZF3 (D1C1E, Cell Signaling Technology Europe), eGFP (F56-6A1.2.3, Thermo) and vinculin (E1E9V, Cell Signaling Technology Europe and sc-25336, Santa Cruz Biotechnologies) antibodies were diluted 1000×, 500× and 50× respectively in 5% non-fat dry milk in TBS-T. Membranes were incubated with primary antibodies overnight at 4° C., washed with TBS-T 3 times, incubated with HRP conjugated secondary antibodies (Promega) for 1 hour at room temperature, washed with TBS-T 3 times and imaged with Clarity Western ECL substrate (Bio-Rad). Membranes were scanned with a Bio-Rad ChemiDoc XRS+ Imaging System (Bio-Rad) and signal intensities were quantified using Image Lab software (Bio Rad). Band densitometry was assessed, normalized to vinculin bands, and reported as percentage of the DMSO control lane.
# [2] = target: Q147A mutated ZF (ANQS) fused to eGFP (Homo sapiens, UniProt Q96SW2+Q9UKT9, Q147A); test: GFP degradation flow cytometry assay, Q147A mutant ZF-eGFP; conditions: for orthogonality index value (from pDC50 Q147A and pDC50 WT): Q147A vs WT ZF, compounds with Q147A Dmax >=0.4 dismissed, 1080 min; for degradation against Q147A relative to WT: flow cytometry, pDC50 comparison
# Protocol: (§2) Jurkat cells were added to 96 well U-bottom assay plates (Falcon) at 1×10^5 cells per well and treated with compounds for 18 hours at 37° C. and 5% CO2. Cells were stained with 1 μg/mL DAPI (ThermoFisher) and acquired on a Cytoflex S (Beckman Coulter). Data was analysed using FlowJo 10.8.1 (BD).
# To probe the potential for orthogonality in a bump-and-hole context, the same assay was carried out again on all compounds, but this time with a Q147A mutated ZF.
# The pDC50 values derived from this screen were used along with the pDC50 values from the WT screen to assign an orthogonality index value to every compound according the following equation: […]
# [3] = target: wild-type IKZF1/IKZF3 ZF degron sequence (WT) fused to eGFP (Homo sapiens, UniProt Q96SW2+Q9UKT9); test: GFP degradation flow cytometry assay (GFP:mCherry ratio), WT ZF-eGFP; conditions: for percent degradation of WT ZF-GFP at 10 µM: 18 h, Jurkat, flow cytometry concentration curve; for degradation ability against the WT ZF sequence: flow cytometry assay
# Protocol: FIG. 2. A. A plasmid containing a ZF degron fused to GFP in the same gene as mCherry. Jurkats that have been lentivirally transduced with this plasmid will express ZF-GFP and mCherry at a consistent ratio. B Addition of an IMID such as pomalidomide will induce GFP degradation via the degron's functionality. C Incubation with an IMID produces a degradation curve.
# as §2
# To test these compounds, we used a flow cytometry assay (FIG. 2) employing an Jurkat cells—an immortalised human blood cell line—that had been stably transduced with a plasmid using a lentiviral vector. This plasmid contained a gene for a 60 amino acid ZF region derived from IKZF3 fused to eGFP, separated from mCherry by an internal ribosomal entry site (IRES). This meant that these cells would express ZF-GFP and mCherry in consistent relative amounts, so under normal conditions the ratio of GFP:mCherry would remain the same regardless of overall expression levels. However, upon incubation with an IMID, ZF-GFP would be selectively degraded, altering this ratio and thus providing an easily measurable proxy for level of ZF degradation.
# We carried out three biological replicates of this assay for each IMID analogue with a 0.1% DMSO control and six concentrations of IMID (1 nM, 10 nM, 100 nM, 1 μM, 10 μM and 100 μM) for each compound. This yielded a degradation curve for each compound, from which a pDC50 value could be derived, indicating how potent a degrader each of our compound were relative to thalidomide, lenalidomide and pomalidomide.
# [4] = target: AEVK-GFP in transduced Jurkat cells (Homo sapiens, UniProt Q96SW2+Q9UKT9, N149E/Q147A/Q150V/S154K); test: Immunoblotting of AEVK ZF-eGFP; conditions: 10 μM; Jurkats transduced with AEVK-GFP
# Protocol: as §1, with “Membranes were blocked in 5% non-fat dry milk (Bio Rad) in TBS-T. Primary IKZF3 (D1C1E, Cell Signaling Technology Europe), eGFP (F56-6A1.2.3, Thermo) and vinculin (E1E9V, Cell Signaling Technology Europe and sc-25336, Santa Cruz Biotechnologies) antibodies were diluted 1000×, 500× and 50× respectively in 5% non-fat dry milk in TBS-T. Membranes were incubated with primary antibodies overnight at 4° C., washed with TBS-T 3 times, incubated with HRP conjugated secondary antibodies (Promega) for 1 hour at room temperature, washed with TBS-T 3 times and imaged with Clarity Western ECL substrate (Bio-Rad).” left out
# Q147A mutated ZF (ANQS) fused to eGFP, sequence (Q9UKT9 130-189 Q147A): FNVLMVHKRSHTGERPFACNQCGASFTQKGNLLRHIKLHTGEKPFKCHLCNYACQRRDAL
# Q147A mutated ZF (ANQS) fused to eGFP, sequence (Q96SW2 whole entry, the tested form may be a part): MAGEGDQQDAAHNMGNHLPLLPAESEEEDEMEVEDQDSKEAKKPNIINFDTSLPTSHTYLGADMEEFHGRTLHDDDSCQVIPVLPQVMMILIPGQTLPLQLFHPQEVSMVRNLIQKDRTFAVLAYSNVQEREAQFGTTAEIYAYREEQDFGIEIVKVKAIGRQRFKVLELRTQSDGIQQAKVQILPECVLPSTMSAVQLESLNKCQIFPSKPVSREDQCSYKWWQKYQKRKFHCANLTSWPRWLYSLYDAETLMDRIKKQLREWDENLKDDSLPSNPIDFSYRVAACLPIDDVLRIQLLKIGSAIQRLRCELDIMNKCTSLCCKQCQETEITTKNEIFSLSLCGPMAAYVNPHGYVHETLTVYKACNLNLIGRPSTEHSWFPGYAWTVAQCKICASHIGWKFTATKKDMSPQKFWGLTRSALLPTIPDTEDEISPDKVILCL
# wild-type IKZF1/IKZF3 ZF degron sequence (WT) fused to eGFP, sequence (Q9UKT9 130-189): as the sequence (Q9UKT9 130-189 Q147A) above, with A18Q counted along it
# wild-type IKZF1/IKZF3 ZF degron sequence (WT) fused to eGFP, sequence (Q96SW2 whole entry, the tested form may be a part): as the sequence (Q96SW2 whole entry, the tested form may be a part) above
# endogenous IKZF3 in Jurkat cells, sequence (Q9UKT9 whole entry): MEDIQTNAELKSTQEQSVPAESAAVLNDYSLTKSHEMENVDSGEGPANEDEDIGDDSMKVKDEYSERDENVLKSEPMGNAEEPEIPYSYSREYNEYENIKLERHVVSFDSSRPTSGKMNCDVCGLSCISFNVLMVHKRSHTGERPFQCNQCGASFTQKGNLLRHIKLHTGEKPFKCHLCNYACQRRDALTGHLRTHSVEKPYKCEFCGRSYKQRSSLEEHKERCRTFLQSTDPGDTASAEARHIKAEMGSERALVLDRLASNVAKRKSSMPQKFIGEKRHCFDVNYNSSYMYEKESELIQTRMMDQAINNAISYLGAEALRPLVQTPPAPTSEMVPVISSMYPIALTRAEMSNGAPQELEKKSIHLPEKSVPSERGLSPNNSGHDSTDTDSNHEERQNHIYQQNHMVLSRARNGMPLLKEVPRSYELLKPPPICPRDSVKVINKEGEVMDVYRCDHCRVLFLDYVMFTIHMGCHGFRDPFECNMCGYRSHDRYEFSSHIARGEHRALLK
# endogenous IKZF3 in Jurkat cells, sequence (Q96SW2 whole entry): as the sequence (Q96SW2 whole entry, the tested form may be a part) above
# AEVK-GFP in transduced Jurkat cells, sequence (Q9UKT9 130-189 Q147A/N149E/Q150V/S154K): as the sequence (Q9UKT9 130-189 Q147A) above, with N20E, Q21V, S25K counted along it
# AEVK-GFP in transduced Jurkat cells, sequence (Q96SW2 whole entry): as the sequence (Q96SW2 whole entry, the tested form may be a part) above
Compound,endogenous IKZF3 level relative to DMSO control (Western blot) [1],ability to degrade endogenous IKZF3 (Western blot) [1],orthogonality index value (from pDC50 Q147A and pDC50 WT) [2],degradation against Q147A relative to WT [2],percent degradation of WT ZF-GFP at 10 µM [3] [%],degradation ability against the WT ZF sequence [3],degradation of AEVK-GFP (Western blot) [4],"level of endogenous IKZF3 (Western blot) ([1]; 10 μM, Jurkats transduced with AEVK-GFP)"
"CN1CCN(c2ccc3c(c2)C(=O)N(C2CCC(=O)NC2=O)C3=O)CC1 (centres unmarked) [B08, 2-(2,6-dioxopiperidin-3-yl)-5-(4-methylpiperazin-1-yl)isoindoline-1,3-dione]",unaffected,neither A63 nor B08 possess ability to degrade endogenous IKZF3,> 10,improved degradation,60 to 70,some degradation ability,–,–
"CC(C)(C)c1ccc2c(c1)C(=O)N(C1CCC(=O)NC1=O)C2=O (centres unmarked) [A63, 5-(tert-butyl)-2-(2,6-dioxopiperidin-3-yl)isoindoline-1,3-dione]",unaffected,neither A63 nor B08 possess ability to degrade endogenous IKZF3,> 10,improved degradation,60 to 70,some degradation ability,full degradation,remains unaffected
